Experimental data: US11730707B2, “Compounds for treating von Hippel-Lindau disease” (CONSEJO SUPERIOR DE INVESTIGACIONES CIENTÍFICAS, priority 2017, dated 2023)
“Also recorded” adds a separate entry of the source. Structures can show the parent of a compound that is named as a salt.

Key:
[1] = system: β2-adrenergic receptor over β1-adrenergic receptor; settings: reported in literature; cited from earlier work
[2] = system: HIF transcriptional activity in HeLa 9XHRE cells; assay: HRE-luciferase reporter assay under DFO chemical hypoxia; type: cell-based, human; settings: for luciferase activity induced by hypoxia (HIF transcriptional activity): 100 μM, 100 μM DFO
Excerpt: Angiogenesis is largely dependent of HIF transcription program, triggered in the presence of hypoxic condition, or as in the case of Von Hippel Lindau haemangioblastoma cells, due to the lack of VHL protein in charge of targeting HIF protein for its proteasome processing under normoxic conditions in wild type cells. A special peculiarity of hemangioblastoma cells, and clear cell kidney carcinoma cells, is that they constitutively express HIF protein, which is active, and is translocated to nucleus where it may bind and activates its gene targets such as: VEGF, PDGF, EPO, endoglin, several metalloproteases, carbonic anhydrase, Glut-1 and so on.

[3] = system: hemangioblastoma primary cell cultures from VHL patients; settings: both at 100 μM, 72 hours
Procedure: HeLa 9XHRE cells were stably transfected with a HREluc reporter carrying nine copies in tandem of the hypoxia responsive element (HRE) followed by luciferase gene, and were cultured in DMEM (Dulbecco's Modified Eagle Medium, Gibco, Grand Island, N.Y., USA) supplemented with 10% fetal bovine serum (FBS; Gibco). To induce hypoxic conditions, HeLa cells were cultured with 100 μM desferrioxamine (DFO) (chemical hypoxia). […] Primary cultures of CNS hemangioblastoma were obtained according to the previously described by Albiñana et al., Orphanet J Rare Diseases, 2015, 10: 118.
The viability of hemangioblastoma and HeLa 9XHRE cells was measured with a CellTiter-Glo Luminescent Cell Viability Assay (Promega, Madison, Wis., USA). This is a homogeneous method to determine the number of viable cells in culture based on quantitation of the ATP present, which signals the presence of metabolically active cells. […] After treatment, plates were equilibrated to room temperature for 30 min before the addition of 100 μl of Cell Titer-Glo reagent (Lysis buffer, Ultra-Glo Recombinant Luciferase, Luciferine and Mg2+). Luminescence was measured using a Glomax Multidetection System (Promega).

HMEC = assay: Cell viability measure (CellTiter-Glo); type: cell-based, human
Procedure: (§1) Endothelial cell lines (HUVECs and HMECs), human ccRCC Vhl−/− 786-O cell line, and primary cultures hemangioblastomas from patients (Hb14 and 18) were seeded in triplicate onto a 96-well plate (2×10^3 per well). […] Cell viability (cell proliferation, ATP content) was determined using the CellTiter-Glo Luminescent Cell Viability Assay kit (Promega) according to the supplier's instructions. […] Cell lysis was induced in an orbital shaker for 2 min, and then plates were incubated at room temperature for 10 min to stabilize the luminescent signal. Luminescence was measured using a GlomaxMultidetection System (Promega) Readings were normalized to control (100%).

HUVEC = assay: Cell viability measure (CellTiter-Glo); type: cell-based, human
Procedure: as §1

[4] = system: primary cultures hemangioblastomas from patients (Vhl−/−); assay: Cell viability measure (CellTiter-Glo); type: cell-based, human; settings: for viability (ATP content) of the VHL−/− cells: 72 hours, hemangioblastoma primary cultures 18, 14 and 786-O vs HUVEC, HMEC (FIG. 9)
Procedure: Cell viability (cell proliferation, ATP content) was determined using the CellTiter-Glo Luminescent Cell Viability Assay kit (Promega) according to the supplier's instructions. […] Cell lysis was induced in an orbital shaker for 2 min, and then plates were incubated at room temperature for 10 min to stabilize the luminescent signal. Luminescence was measured using a GlomaxMultidetection System (Promega) Readings were normalized to control (100%).

[5] = system: VHL-derived hemangioblastoma cells (hemangiospheres); assay: Hemangiospheres formation and culture; type: cell-based, human; settings: 100 μM, 7 days
Procedure: VHL-derived hemangioblastoma cells were grown in suspension in phenol red free DMEM:F-12 medium with GlutaMAX, supplemented with B27, 20 ng/ml EGF, 20 ng/ml bFGF and 1% penicillin/streptomycin at 37° C. in 5% CO2. Single cell suspensions were plated at a density of 50.000 cells/ml in 75 cm^2 ultralow attachment flasks (Corning).

[6] = system: BAX and CASP9 mRNA in hemangioblastoma cells; assay: Real-time RT-PCR of proapoptotic genes; type: cell-based, human; settings: 100 μM, 72 h; HB26 and HB11 hemangioblastoma cell culture
Procedure: Total cellular RNA was extracted from hemangioblastoma cells using a Nucleo Spin RNA kit (Macherey-Nagel, Düren, Germany). One microgram of total RNA was reverse-transcribed in a final volume of 20 μl with the First Strand cDNA Synthesis Kit (Roche, Mannheim, Germany) using random primers. SYBR Green PCR system (BioRad, Hercules, Calif., USA) was used to carry out real-time PCR with an iQ5 system. Primers used for qPCR were: […]

[7] = system: human ccRCC Vhl−/− 786-O cell line; assay: Cell viability measure (CellTiter-Glo); type: cell-based; settings: 72 hours, 0 to 250 μM
Procedure: as §1

HUVEC migration = assay: Wound healing assay; type: cell-based, human; settings: 100 μM, 6 hours
Procedure: FIG. 5. […] A. Functional in vitro tests for angiogenesis include “wound-healing” or plate-scratch, to follow the migration capacity of endothelial cells after short times. When a confluent monolayer is disrupted with the tip of a micropipette to create a discontinuity, endothelial cells normally migrate to cover the discontinuity “wound the healing” in a short time, depending on the size of the “wound” but normally, less than 8 hours. This test measures the migration by taking pictures at different times from the moment the wound is created. Only the final picture after 6 hours is shown. The migrated distance is quantified, and in the following graph the evolution is shown.
(§2) In vitro-scratched wounds were created by scraping confluent HUVEC-1 monolayers in P-24 plate wells with sterile disposable pipet tips.

[8] = system: 786-O Vhl−/− ccRCC xenograft; type: in vivo; settings: 10 mg/Kg daily intraperitoneally; 50-60 days after the cell inoculation
Procedure: FIG. 10. Xenografts of 786-O Vhl−/− human ccRCC cells in mice. Male 7-8 weeks old NOD scid gamma (NSG) mice were injected in the dorsal flank with a single cell suspension of 10^6 786-O cells. When tumor size reached 100 mm3 volume, mice were randomly divided in 3 groups, of 9/10 mice each. […] Tumor size was measured by a caliper every 2-3 days and volumes were calculated following the formula: shortest^2×largest×0.52. Mice were sacrificed when tumor volume average of the control group reached an end point established based on ethical procedures. Arrow marks the beginning of the treatment.
Male 7-8 weeks old NOD scid gamma (NSG) mice were injected in the dorsal flank with a single cell suspension of […] 786-O cells. When tumor size reached 100 mm^3 volume, mice were randomly divided in 3 groups, of 9/10 mice each. […] Tumor size was measured by a caliper every 2-3 days and volumes were calculated following the formula: shortest 2×largest×0.52. Mice were sacrificed when tumor volume average of the control group reached an end point established according to ethical procedures

HUVECs tubulogenesis = assay: Tube formation assay on Matrigel; type: cell-based, human; settings: 100 μM, 3 hours
Excerpt: FIG. 6. […] Tubulogenesis is another in vitro test for angiogenesis. Endothelial cells cultured on matrigel have the property of building cell tube-like structures, which mimic the “vessels” structure. […] B. The number of closed cells (density network) is quantified and averaged from 5 different fields in each case. Bar histograms represent the mean±SD.
as §2

retina hemangioblastomas = settings: cited from earlier work

COc1ccc(OC)c(C(O)C(C)NC(C)(C)C)c1 (racemic) [butoxamine, DL-erythro-α-(2,5-dimethoxyphenyl)-β-t-butyl aminopropanol hydrochloride]
β2/β1 selectivity ratio [1]: at least 17

CC(C)NCC(O)COc1ccc(CC(N)=O)cc1 (stereo not shown) [Atenolol]
luciferase activity induced by hypoxia (HIF transcriptional activity) [2]: less significant | luciferase activity induced by hypoxia (HIF transcriptional activity) ([2]; listed as atenolol): hardly reduced the hypoxia stimulation

Cc1ccc(OCC(O)C(C)NC(C)C)c2c1CCC2 [ICI 118,551, erythro-D,L-1(methylinden-4-yloxy)-3-isopropylaminobutan-2-ol]
luciferase activity induced by hypoxia (HIF transcriptional activity) [2]: reduced practically to “0” | luciferase activity induced by hypoxia (HIF transcriptional activity) ([2]; listed as ICI): prevented hypoxia stimulation | luciferase activity induced by hypoxia (HIF transcriptional activity) ([2]; listed as ICI118,551): extremely reduced | hypoxia stimulation induced by DFO (relative luciferase activity) ([2]; 50 or 100 μMolar, 24 h, DFO 100 μMolar simultaneously): inhibits the hypoxia stimulation induced by DFO | effect on HIF luciferase activity compared with propranolol ([2]; equal dose): clearly superior to propranolol | effect on viability compared with propranolol [3]: superior to propranolol | β2/β1 selectivity ratio [1]: at least 50 | decrease in viability (HMEC; HMEC-1, 100 μM (FIG. 11)): 55% | LD50 (HMEC; HMEC, 72 hours, 0 to 250 μM): around 150 μM | decrease in viability (HUVEC; 100 μM (FIG. 11)): 80% | LD50 (HUVEC; 72 hours, 0 to 250 μM): around 150 μM | viability (ATP content) of the VHL−/− cells [4]: decrease, in a dose-dependent manner and with higher specificity | viability at 100 µM ([4]; Homo sapiens, Haemangioblastoma (HB) cells, 100 μM (FIG. 11)): 20% | hemangiosphere formation [5]: hemangiospheres are disrupted; also recorded: the spheres appear disaggregated | Bax mRNA expression (RT-qPCR) [6]: significantly upregulated; also recorded: increased | Caspase 9 mRNA expression (RT-qPCR) [6]: significantly upregulated; also recorded: increased | LD50 [7]: 100 µM | cell migration (closure of the discontinuity) (HUVEC migration): delay the closure of the discontinuity; also recorded: delay cell migration | decrease of the size tumor versus vehicle treated mice [8]: around 30% | tubulogenesis (number of closed structures) (HUVECs tubulogenesis): dramatically decreased; also recorded: significantly inhibit the tubulogenesis

CC(C)NCC(O)COc1cccc2ccccc12 (stereo not shown) [Propranolol]
luciferase activity induced by hypoxia (HIF transcriptional activity) [2]: dampened; also recorded: prevented hypoxia stimulation | luciferase activity induced by hypoxia (HIF transcriptional activity) ([2]; listed as propranolol): extremely reduced | viability (ATP content) of the VHL−/− cells [4]: decrease, in a dose-dependent manner and with higher specificity | hemangiosphere formation [5]: hemangiospheres are disrupted; also recorded: the spheres appear disaggregated | cell migration (closure of the discontinuity) (HUVEC migration): delay the closure of the discontinuity; also recorded: delay cell migration | decrease of the size tumor versus vehicle treated mice [8]: around 30% | tumor growth during the clinical trial (retina hemangioblastomas; 120 mg a day, 12 months, 7 VHL patients): did not grow in any case | visual acuity (retina hemangioblastomas; 120 mg a day, 12 months): in some cases visual acuity increased | side effect (retina hemangioblastomas; 120 mg a day): Low blood pressure | exudates from the hemangioblastomas (retina hemangioblastomas; 2 cases, between 3 and 6 months of treatment): disappeared completely | tubulogenesis (number of closed structures) (HUVECs tubulogenesis): dramatically decreased; also recorded: significantly inhibit the tubulogenesis
